Measured values reported in US8604044B2, “Quinazoline based EGFR inhibitors containing a zinc binding moiety” (Curis, Inc., priority 2006, dated 2013).
pIC50: −log10 of the molar value.

test system: HDAC; assay: HDAC fluorimetric assay (HDAC enzymatic activity, HeLa nuclear extract); format: biochemical; conditions: HeLa nuclear extract; read-out: HDAC IC50 grading
Experimental: HDAC inhibitors were screened using an HDAC fluorimetric assay kit (AK-500, Biomol, Plymouth Meeting, Pa.).
Each assay was setup as follows: Defrosted all kit components and kept on ice until use. […] Prepared dilutions of Trichostatin A (TSA, positive control) and tested compounds in assay buffer (5× of final concentration). Diluted Fluor de Lys™ Substrate in assay buffer to 100 uM (50 fold=2× final). Diluted Fluor de Lys™ developer concentrate 20-fold (e.g. 50 μl plus 950 μl Assay Buffer) in cold assay buffer. Second, diluted the 0.2 mM Trichostatin A 100-fold in the 1× Developer (e.g. 10 μl in 1 ml; final Trichostatin A concentration in the 1× Developer=2 μM; final concentration after addition to HDAC/Substrate reaction=1 μM). Added Assay buffer, diluted trichostatin A or test inhibitor to appropriate wells of the microtiter plate. Added diluted HeLa extract or other HDAC sample to all wells except for negative controls.

SMILES	pIC50
COc1cc2ncnc(Nc3ccc(F)c(Cl)c3)c2cc1OCCOc1ccc(/C=C/C(=O)NO)cc1 [Compound 66, (E)-3-(4-(2-(4-(3-chloro-4-fluorophenylamino)-7-methoxyquinazolin-6-yloxy)ethoxy)phenyl)-N-hydroxyacrylamide]	6.00 to 7.00
COc1cc2ncnc(Nc3ccc(F)c(Cl)c3)c2cc1OCCCCC(=O)NO [Compound 4]	6.00 to 7.00
C#Cc1cccc(Nc2ncnc3ccc(OCCCCC(=O)NO)cc23)c1 [Compound 22]	> 7.00
C#Cc1cccc(Nc2ncnc3cc(OC)c(OCCC(=O)NO)cc23)c1 [Compound 8]	< 5.00
Nc1cc(Br)ccc1NC(=O)COc1ccc2ncnc(Nc3ccc(F)c(Cl)c3)c2c1 [Compound 45]	< 5.00
C[C@@H](Nc1ncnc2ccc(OCCCCCC(=O)NO)cc12)c1ccccc1 [Compound 50]	6.00 to 7.00
COc1cc2ncnc(Nc3ccc(F)c(Cl)c3)c2cc1NC(=O)CCCC(=O)NO [Compound 38, N^1-(4-(3-chloro-4-fluorophenylamino)-7-methoxyquinazolin-6-yl)-N^5-hydroxyglutaramide]	5.00 to 6.00
COCCOc1cc2ncnc(Nc3ccc(F)c(Cl)c3)c2cc1NC(=O)CCCC(=O)NO [Compound 68, N^1-(4-(3-chloro-4-fluorophenylamino)-7-(2-methoxyethoxy)quinazolin-6-yl)-N^5-hydroxyglutaramide]	5.00 to 6.00
O=C(/C=C/c1ccc(OCCOc2ccc3ncnc(Nc4ccc(F)c(Cl)c4)c3c2)cc1)NO [Compound 63]	6.00 to 7.00
C#Cc1cccc(Nc2ncnc3cc(OCCOC)c(OCCCCCCC(=O)NO)cc23)c1 [Compound 36, 7-(4-(3-Ethynylphenylamino)-7-(2-methoxyethoxy)quinazolin-6-yloxy)-N-hydroxyheptanamide]	> 7.00
C#Cc1cccc(Nc2ncnc3cc(OC)c(NC(=O)CCCCC(=O)NO)cc23)c1 [Compound 43, N^1-(4-(3-ethynylphenylamino)-7-methoxyquinazolin-6-yl)-N^6-hydroxyadipamide]	6.00 to 7.00
COc1cc2ncnc(Nc3ccc(F)c(Cl)c3)c2cc1OCCCCCC(=O)NO [Compound 5]	> 7.00
COc1cc2ncnc(Nc3ccc(F)c(Cl)c3)c2cc1OCCCC(=O)NO [Compound 3, 4-(4-(3-Chloro-4-fluorophenylamino)-7-methoxyquinazolin-6-yloxy)-N-hydroxybutanamide]	< 5.00
C#Cc1cccc(Nc2ncnc3cc(OC)c(OCCCC(=O)NO)cc23)c1 [Compound 9, 4-(4-(3-ethynylphenylamino)-7-methoxyquinazolin-6-yloxy)-N-hydroxybutanamide]	6.00 to 7.00
O=C(CCOc1ccc2ncnc(Nc3ccc(F)c(Cl)c3)c2c1)NO [Compound 14]	5.00 to 6.00
C#Cc1cccc(Nc2ncnc3cc(OC)c(NC(=O)CCCC(=O)NO)cc23)c1 [Compound 42, N^1-(4-(3-ethynylphenylamino)-7-methoxyquinazolin-6-yl)-N^5-hydroxyglutaramide]	6.00 to 7.00
C#Cc1cccc(Nc2ncnc3ccc(OCCCCCCC(=O)NO)cc23)c1 [Compound 24, 7-(4-(3-ethynylphenylamino)quinazolin-6-yloxy)-N-hydroxyheptanamide]	> 7.00
COCCOc1cc2ncnc(Nc3ccc(F)c(Cl)c3)c2cc1NC(=O)CCCCC(=O)NO [Compound 69, N^1-(4-(3-chloro-4-fluorophenylamino)-7-(2-methoxyethoxy)quinazolin-6-yl)-N^6-hydroxyadipamide]	6.00 to 7.00
O=C(COc1ccc2ncnc(Nc3ccc(F)c(Cl)c3)c2c1)NO [Compound 13, 2-(4-(3-chloro-4-fluorophenylamino)quinazolin-6-yloxy)-N-hydroxyacetamide]	< 5.00
O=C(CCCCCOc1ccc2ncnc(Nc3ccc(F)c(Cl)c3)c2c1)NO [Compound 17, 6-(4-(3-Chloro-4-fluorophenylamino)quinazolin-6-yloxy)-N-hydroxyhexanamide]	> 7.00
COc1cc2ncnc(Nc3ccc(F)c(Cl)c3)c2cc1OCCC(=O)NO [Compound 2]	< 5.00
COc1cc2ncnc(Nc3ccc(F)c(Cl)c3)c2cc1OCC(=O)NO [Compound 1, 2-(4-(3-Chloro-4-fluorophenylamino)-7-methoxyquinazolin-6-yloxy)-N-hydroxyacetamide]	< 5.00
C#Cc1cccc(Nc2ncnc3cc(OC)c(OCCCCC(=O)NO)cc23)c1 [Compound 10, 5-(4-(3-Ethynylphenylamino)-7-methoxyquinazolin-6-yloxy)-N-hydroxypentanamide]	6.00 to 7.00

Next, values leading:

pIC50	SMILES
> 7.00	COc1cc2ncnc(NCc3ccc(F)c(F)c3)c2cc1OCCCCCCC(=O)NO [Compound 87, 7-(4-(3,4-difluorobenzylamino)-7-methoxyquinazolin-6-yloxy)-N-hydroxyheptanamide]
6.00 to 7.00	COc1cc2ncnc(N[C@H](C)c3ccc(Cl)cc3)c2cc1OCCCCCCC(=O)NO [Compound 82, (R)-7-(4-(1-(4-chlorophenyl)ethylamino)-7-methoxyquinazolin-6-yloxy)-N-hydroxyheptanamide]
> 7.00	COc1cc2ncnc(NCc3ccc(F)cc3)c2cc1OCCCCCCC(=O)NO [Compound 86, 7-(4-(4-fluorobenzylamino)-7-methoxyquinazolin-6-yloxy)-N-hydroxyheptanamide]
5.00 to 6.00	COc1cc2ncnc(Nc3ccc(F)c(Cl)c3)c2cc1C#CCCCC(=O)NO [Compound 139, 6-(4-(3-chloro-4-fluorophenylamino)-7-methoxyquinazolin-6-yl)-N-hydroxyhex-5-ynamide]
> 7.00	C[C@@H](Nc1ncnc2ccc(OCCCCCC(=O)NO)cc12)c1ccccc1 [Compound 78, (R)—N-hydroxy-6-(4-(1-phenylethylamino)-quinazolin-6-yloxy)hexanamide]
5.00 to 6.00	COc1cc2ncnc(Nc3ccc(F)c(Cl)c3)c2cc1OCCOc1ccc(CC(=O)NO)cc1 [Compound 91]
> 7.00	COc1ccc([C@@H](C)Nc2ncnc3cc(OC)c(OCCCCCCC(=O)NO)cc23)cc1 [Compound 83, (R)—N-hydroxy-7-(7-methoxy-4-(1-(4-methoxyphenyl)ethylamino)quinazolin-6-yloxy)-heptanamide]
< 5.00	COc1cc2ncnc(Nc3ccc(F)c(Cl)c3)c2cc1OCCNCc1ccc(C#CC(=O)NO)cc1 [Compound 121]
> 7.00	COc1cc2ncnc(NCc3cccc(Br)c3)c2cc1OCCCCCCC(=O)NO [Compound 89, 7-(4-(3-bromobenzylamino)-7-methoxyquinazolin-6-yloxy)-N-hydroxyheptanamide]
> 7.00	COc1cc2ncnc(N[C@@H](C)c3ccccc3)c2cc1OCCCCCCC(=O)NO [Compound 80, (S)—N-hydroxy-7-(7-methoxy-4-(1-phenylethylamino)quinazolin-6-yloxy)heptanamide]
< 5.00	COc1cc2ncnc(Nc3ccc(F)c(Cl)c3)c2cc1OCCCCCCN(O)C(C)=O [Compound 103, N-(6-(4-(3-chloro-4-fluorophenylamino)-7-methoxyquinazolin-6-yloxy)hexyl)-N-hydroxyacetamide]
5.00 to 6.00	COc1cc2ncnc(Nc3ccc(F)c(Cl)c3)c2cc1OCCN(CCO)CCCC(=O)NO [Compound 118]
5.00 to 6.00	COc1cc2ncnc(Nc3ccc(F)c(Cl)c3)c2cc1NC(=O)Nc1ccc(C(=O)NO)cc1 [Compound 93]
6.00 to 7.00	COc1cc2ncnc(Nc3ccc(F)c(Cl)c3)c2cc1CCCCC(=O)NO [Compound 144, 5-(4-(3-chloro-4-fluorophenylamino)-7-methoxyquinazolin-6-yl)-N-hydroxypentanamide]
> 7.00	C#Cc1cccc(CNc2ncnc3cc(OC)c(OCCCCCCC(=O)NO)cc23)c1 [Compound 90, 7-(4-(3-ethynylbenzylamino)-7-methoxyquinazolin-6-yloxy)-N-hydroxyheptanamide]
< 5.00	COc1cc2ncnc(Nc3ccc(F)c(Cl)c3)c2cc1OCCCCCCC(=O)N(C)O [Compound 94]
> 7.00	COc1cc2ncnc(NCCc3ccccc3)c2cc1OCCCCCCC(=O)NO [Compound 84]
< 5.00	COc1cc2ncnc(Nc3ccc(F)c(Cl)c3)c2cc1-c1ccc(C#CCCC(=O)NO)o1 [Compound 124]
6.00 to 7.00	COc1cc2ncnc(Nc3ccc(F)c(Cl)c3)c2cc1-c1ccc(C#CCCCC(=O)NO)o1 [Compound 125]
> 7.00	COc1cc2ncnc(N[C@H](C)c3ccccc3)c2cc1OCCCCCC(=O)NO [Compound 77, (R)—N-hydroxy-6-(7-methoxy-4-(1-phenylethylamino)quinazolin-6-yloxy)-hexanamide]
5.00 to 6.00	COc1cc2ncnc(Nc3ccc(F)c(Cl)c3)c2cc1C#CCCC(=O)NO [Compound 138]
6.00 to 7.00	COc1cc2ncnc(Nc3ccc(F)c(Cl)c3)c2cc1OCCNCc1ccc(C(=O)NO)cc1 [Compound 107]
5.00 to 6.00	COc1cc2ncnc(Nc3ccc(F)c(Cl)c3)c2cc1Oc1ccc(C#CCCCC(=O)NO)cc1 [Compound 205]

target: T1, HER2 (Homo sapiens, UniProt P04626); assay: Radioisotope assay for HER2; format: biochemical; conditions: read-out: HER2/ErB2 IC50 grading
T1 construct: human HER2 amino acids 679-1255; host or cells: baculovirus in Sf9 insect cells
T1 sequence (P04626 679-1255): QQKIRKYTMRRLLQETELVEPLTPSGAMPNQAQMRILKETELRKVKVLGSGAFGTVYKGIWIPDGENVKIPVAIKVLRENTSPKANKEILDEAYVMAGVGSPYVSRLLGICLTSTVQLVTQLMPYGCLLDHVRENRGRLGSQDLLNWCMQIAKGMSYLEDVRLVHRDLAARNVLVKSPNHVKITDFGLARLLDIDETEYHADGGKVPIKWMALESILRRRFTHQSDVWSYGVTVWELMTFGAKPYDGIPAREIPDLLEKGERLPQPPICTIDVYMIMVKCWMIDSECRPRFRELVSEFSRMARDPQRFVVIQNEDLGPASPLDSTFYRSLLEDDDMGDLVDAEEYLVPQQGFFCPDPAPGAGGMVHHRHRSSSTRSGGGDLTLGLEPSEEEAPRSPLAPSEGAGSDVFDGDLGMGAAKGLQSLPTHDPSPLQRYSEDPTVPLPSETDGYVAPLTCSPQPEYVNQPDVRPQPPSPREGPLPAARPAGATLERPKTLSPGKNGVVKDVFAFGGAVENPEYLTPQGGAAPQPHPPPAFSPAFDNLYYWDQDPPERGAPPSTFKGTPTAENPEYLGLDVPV
Experimental: Protocol for Radioisotope Assay for HER2
10 nM HER2 and 0.1 mg/ml polyEY were placed in the reaction buffer and 2 mM MnCl2, 1 μM ATP and 1% DMSO final were added. The reaction mixture was incubated for 2 hours at room temperature.
MW=91.6 kDa. […] Enzyme is in 25 mM Tris-HCl, pH 8.0, 100 mM NaCl, 0.05% Tween-20, 50% glycerol, 10 mM reduced glutathione, and 3 mM DTT.

pIC50	SMILES
> 7.00	COCCOc1cc2ncnc(Nc3ccc(F)c(Cl)c3)c2cc1NC(=O)CCCCCCC(=O)NO [Compound 70, N^1-(4-(3-chloro-4-fluorophenylamino)-7-(2-methoxyethoxy)quinazolin-6-yl)-N^8-hydroxyoctanediamide]
